Measured values published in US20200187499A1, “SUBSTITUTED BENZYL-4-AMINOPICOLINIC ESTERS AND PYRIMIDINO-4-CARBOXYLIC ESTERS, METHODS FOR THE PRODUCTION THEREOF, AND USE THEREOF AS HERBICIDES AND PLANT GROWTH REGULATORS” (Bayer CropScience Aktiengesellschaft, priority 2017, published 2020).

Key:
Assay type in all cases: in vivo
SETVI [1] = test: Post-emergence herbicidal action; settings: 320 g/ha, assessed after about 3 weeks
In short: (§1)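 Visual percent herbicidal action (0% = like control, 100% = dead) was scored roughly 3 weeks after treatment. Compounds were sprayed post-emergence as aqueous WP/EC preparations, 600–800 l/ha water plus 0.2% wetting agent. Plants were at the one-leaf stage, 2–3 weeks after sowing in sandy loam, greenhouse-grown.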

ABUTH [2] = test: Post-emergence herbicidal action; settings: 320 g/ha, assessed after about 3 weeks
In short: as §1

STEME = test: Post-emergence herbicidal action; settings: 320 g/ha, assessed after about 3 weeks
In short: as §1

POLCO [3] = test: Post-emergence herbicidal action; settings: Table 5, post-emergence (PO), 320 g/ha, assessed after about 3 weeks
In short: as §1

VIOTR [4] = test: Post-emergence herbicidal action; settings: Table 5, post-emergence (PO), 320 g/ha, assessed after about 3 weeks
In short: as §1

ECHCG [5] = test: Post-emergence herbicidal action; settings: Table 5, post-emergence (PO), 320 g/ha, assessed after about 3 weeks
In short: as §1

AMARE [6] = test: Post-emergence herbicidal action; settings: 320 g/ha, assessed after about 3 weeks
In short: as §1

PHBPU = test: Post-emergence herbicidal action; settings: Table 5, post-emergence (PO), 320 g/ha, assessed after about 3 weeks
In short: as §1

SETVI [7] = test: Pre-emergence herbicidal action; settings: 320 g/ha, scored after 3 weeks
In short: (§2)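 Seeds sown in sandy loam and covered; WP or EC formulations sprayed onto the soil surface as aqueous suspension/emulsion at 600–800 l/ha water with 0.2% wetting agent. Greenhouse-grown 3 weeks, then damage scored visually against untreated controls (0% = like control, 100% = dead).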

ABUTH [8] = test: Pre-emergence herbicidal action; settings: 320 g/ha, scored after 3 weeks
In short: as §2

POLCO [9] = test: Pre-emergence herbicidal action; settings: Table 2, pre-emergence (PE), 320 g/ha, scored after 3 weeks
In short: as §2

VIOTR [10] = test: Pre-emergence herbicidal action; settings: Table 2, pre-emergence (PE), 320 g/ha, scored after 3 weeks
In short: as §2

ECHCG [11] = test: Pre-emergence herbicidal action; settings: 320 g/ha, scored after 3 weeks
In short: as §2

AMARE [12] = test: Pre-emergence herbicidal action; settings: 320 g/ha, scored after 3 weeks
In short: as §2

ALOMY = test: Pre-emergence herbicidal action; settings: 320 g/ha, scored after 3 weeks
In short: as §2

SMILES | Herbicidal action against SETVI (SETVI [1]; Table 5, post-emergence (PO)) | Herbicidal action against ABUTH (ABUTH [2]; Table 5, post-emergence (PO)) | Herbicidal action against STEME (STEME; Table 5, post-emergence (PO)) | Herbicidal action against POLCO (POLCO [3]) | Herbicidal action against VIOTR (VIOTR [4]) | Herbicidal action against ECHCG (ECHCG [5]) | Herbicidal action against AMARE (AMARE [6]; Table 5, post-emergence (PO)) | Herbicidal action against PHBPU (PHBPU) | Herbicidal action against SETVI (SETVI [7]; Table 2, pre-emergence (PE)) | Herbicidal action against ABUTH (ABUTH [8]; Table 2, pre-emergence (PE)) | Herbicidal action against POLCO (POLCO [9]) | Herbicidal action against VIOTR (VIOTR [10]) | Herbicidal action against ECHCG (ECHCG [11]; Table 2, pre-emergence (PE)) | Herbicidal action against AMARE (AMARE [12]; Table 2, pre-emergence (PE)) | Herbicidal action against ALOMY (ALOMY; Table 2, pre-emergence (PE)) | Herbicidal action against SETVI (SETVI [1]; Table 6, post-emergence (PO)) | Herbicidal action against ABUTH (ABUTH [2]; Table 6, post-emergence (PO)) | Herbicidal action against STEME (STEME; Table 6, post-emergence (PO)) | Herbicidal action against AMARE (AMARE [6]; Table 6, post-emergence (PO)) | Herbicidal action against SETVI (SETVI [7]; Table 3, pre-emergence (PE)) | also measured
COc1ccc(COC(=O)c2nc(-c3ccc4ccoc4c3)c(F)c(N)c2Cl)cc1 [Example I-03] | 90% | 100% | 100% | 40% | 100% | 100% | 100% | 40% | 40% | 80% | 50% | 90% | 90% | 100% | 20% |  |  |  |  |  | 
Nc1cc(-c2ccc3occc3c2)nc(C(=O)OCc2cc(F)c(F)cc2F)c1Cl [Example I-06] |  |  |  |  |  |  |  |  | 90% | 20% | 100% | 60% | 100% | 100% | 80% | 90% | 100% | 100% | 100% |  | 
COc1c(F)ccc(COC(=O)c2nc(-c3ccc4ccsc4c3)cc(N)c2Cl)c1F [Example I-08] |  |  |  |  |  |  |  |  | 90% | 0% | 100% | 20% | 100% | 100% | 60% | 70% | 100% | 100% | 100% |  | 
Nc1cc(-c2ccc3sccc3c2)nc(C(=O)OCc2ccc(Cl)cc2)c1Cl [Example I-19] | 80% | 90% | 100% | 0% | 80% | 100% | 100% | 100% |  |  |  |  |  |  |  |  |  |  |  | 50% | Herbicidal action against ABUTH (ABUTH [8]; Table 3, pre-emergence (PE)): 70%; Herbicidal action against ECHCG (ECHCG [11]; Table 3, pre-emergence (PE)): 50%; Herbicidal action against AMARE (AMARE [12]; Table 3, pre-emergence (PE)): 100%; Herbicidal action against ALOMY (ALOMY; Table 3, pre-emergence (PE)): 60%
Nc1cc(-c2ccc3occc3c2)nc(C(=O)OCc2ccc(C(F)(F)F)cc2)c1Cl [Example I-36] |  |  |  |  |  |  |  |  | 90% | 90% | 90% | 0% | 90% | 100% | 50% | 80% | 100% | 100% | 100% |  | 
Nc1c(F)c(-c2ccc3sccc3c2)nc(C(=O)OCc2ccc(F)cc2)c1Cl [Example I-29] | 80% | 80% | 80% | 90% | 50% | 90% | 100% | 40% |  |  |  |  |  |  |  |  |  |  |  | 70% | Herbicidal action against ABUTH (ABUTH [8]; Table 3, pre-emergence (PE)): 70%; Herbicidal action against ECHCG (ECHCG [11]; Table 3, pre-emergence (PE)): 80%; Herbicidal action against AMARE (AMARE [12]; Table 3, pre-emergence (PE)): 100%; Herbicidal action against ALOMY (ALOMY; Table 3, pre-emergence (PE)): 80%
COc1c(F)ccc(COC(=O)c2nc(-c3ccc4sccc4c3)cc(N)c2Cl)c1F [Example I-22] | 100% | 100% | 100% | 90% | 80% | 90% | 100% | 80% |  |  |  |  |  |  |  |  |  |  |  | 90% | Herbicidal action against ABUTH (ABUTH [8]; Table 3, pre-emergence (PE)): 20%; Herbicidal action against ECHCG (ECHCG [11]; Table 3, pre-emergence (PE)): 90%; Herbicidal action against AMARE (AMARE [12]; Table 3, pre-emergence (PE)): 100%; Herbicidal action against ALOMY (ALOMY; Table 3, pre-emergence (PE)): 50%
Nc1cc(-c2ccc3occc3c2)nc(C(=O)OCc2c(F)cc(F)cc2F)c1Cl [Example I-20] |  |  |  |  |  |  |  |  | 100% | 50% | 100% | 40% | 100% | 100% | 70% | 100% | 100% | 100% | 100% |  | 
Nc1cc(-c2ccc3ccsc3c2)nc(C(=O)OCc2ccc(F)cc2F)c1Cl [Example I-12] |  |  |  |  |  |  |  |  | 90% | 20% | 100% | 20% | 100% | 100% | 70% | 100% | 90% | 100% | 100% |  | 
